Source: patent publication US4918064A, “Phenyl glycines for use in reducing neurotoxic injury” (G. D. Searle & Co., priority 1987, dated 1990)
Where two headings read alike, the source gives them in different places.

Experiments:
CD-1 mouse = test: In Vivo 3-MPA-Induced Convulsions (tonic hindlimb extension); settings: Mus musculus
Experimental: In the CD-1 mouse, i.p. injection of 3-MPA produces clonic seizures, tonic hindlimb extension and death. Seizures begin within 2-3 minutes after injection. The dose-response for induction of tonus by 3-MPA is unusual. The incidence of tonus increases rapidly from 35 to 50 mg/kg and remains constant at a less than maximal level over a broad dose range. 3-MPA doses from 50 to 150 mg/kg produce tonus in approximately 75% of the treated mice. The incidence of death over this dose range is variable and less than maximal.
In order to test for antagonism of 3-MPA-induced tonus, the lowest dose of 3-MPA that produced tonus consistently in 75% of the animals (50 mg/kg i.p.) was chosen. Test compounds were administered subcutaneously 30-40 minutes prior to i.p. administration of 3-MPA. Immediately after 3-MPA administration, each mouse was placed in a small cage made of steel rods. The mice were then observed for the presence or absence of tonic hindlimb extension. Reduction (from 75%) in the incidence of tonic hindlimb extension was considered protection from 3-MPA-induced convulsions. The dose of the test compound varied using groups of ten mice per dose until dose response curves are constructed, and ED50 's are calculated.

[1] = target: Quis (quisqualate) receptor; test: [3H]AMPA (QUIS) receptor binding assay, synaptic plasma membranes; settings: [3H]AMPA 10 nM, 100 mM KSCN, 0-4° C., 10 min
Experimental: (§1) Synaptic plasma membranes (SPM) were prepared as previously described [Monahan, J. B. and Michel, J., "Identification and Characterization of an N-methyl-D-aspartate-specific L[^3 H]glutamate Recognition Site in Synaptic Plasma Membranes, J. Neurochem., 48, 1699-1708 (1987)]. The SPM were stored at a concentration of 10-15 mg/ml in 0.32M sucrose, 0.5 mM EDTA, 1 mM MgSO4, 5 mM Tris/SO4, pH 7.4, under liquid nitrogen. The identity and purity of the subcellular fractions were confirmed by both electron microscopy and marker enzymes. Protein concentrations were determined by using a modification of the method of Lowry [Ohnishi, S. T. and Barr, J. K., "A Simplified Method of Quantitating Proteins Using the Biuret and Phenol Reagents", Anal. Biochem., 86, 193-197 (1978)].
The SPM were treated identically for the [^3 H]AMPA (QUIS), [^3 H]kainate and sodium-dependent L-[^3 H]-glumatate binding assays. The SPM were thawed at room temperature, diluted twenty-fold with 50 mM Tris/acetate, pH 7.4, incubated at 37° C. for 30 minutes, and centrifuged at 100,000 g for 15 minutes. The dilution, incubation, and centrifugation was repeated a total of three times.
(§2) The basic procedure for the receptor subclass binding assays was similar. This general method involved adding the radioligand (12.5 nM L-[^3 H]glutamate; 0.5 nM [^3 H]kainate or 10 nM [^3 H]AMPA) to the appropriate concentration of the test compound and initiating the assay by the addition of ice cold synaptic plasma membranes (0.2-0.45 mg). The binding assays were performed in 1.5 mL centrifuge tubes with the total volume adjusted to 1.0 mL. .Additions of test compounds were made in 50 mM Tris/acetate, pH 7.4 and incubations were carried out at 0°-4° C. The incubation time for the NMDA and the AMPA binding assays was 10 minutes, for the kainate binding assay 60 minutes and for the sodium-dependent glutamate binding assay 15 minutes. The AMPA binding assay contained 100 mM KSCN and the sodium-dependent glutamate binding assay contained 150 mM sodium acetate in addition to the previously described reagents.
(§3) To terminate the incubation, the samples were centrifuged for 15 minutes at 12,000 g and 4° C. in a Beckman Microfuge 12. The supernatant was aspirated and the pelleted membranes dissolved in Beckman BTS-450 tissue solubilizer for a minimum of 6 hours at room temperature. Beckman MP scintillation cocktail containing 7 mL/1 acetic acid was then added and the samples counted on a Beckman LS 5800 or 3801 liquid scintillation counter with automatic corrections for quenching and counting efficiency.
(§4) Nonspecific binding was defined as the residual binding in the presence of either excess L-glutamate (0.1-0.4 mM), kainate (0.01 mM), or NMDA (0.5 mM), and was 15-25% of the total binding in the NMDA binding assay, 19-27% in the AMPA binding assay, 20-30% in the kainate binding assay and 10-15% in the sodium-dependent binding assay. Radioligand binding to the synaptic plasma membranes was analyzed using Scatchard and Hill transformations and the Ki values of the compounds determined using logit-log transformations. Calculations and regression analysis were performed using templates developed for Lotus 1, 2, 3 as previously described [Pullan, L. M. "Automated Radioligand Receptor Binding Analysis with Templates for Lotus", Computer Appln. Biosci., 3 131 (1987)]. Binding results are reported in Table II for example compounds of the invention. […]

hippocampal neurons = test: Glutamate Toxicity Survival Assay, cultured hippocampal neurons (MTT); type: cell-based, Sprague-Dawley rat; settings: 5 μM compound
Experimental: Hippocampal neurons were obtained from embryonic day 17 Sprague-Dawley rats. The brains were removed and the hippocampus dissected, placed in ice-cold Leibovitz L-15 medium, carefully stripped of any remaining meninges, and minced into small pieces using scissors. […] Following incubation, the cells were rinsed with 10% serum-containing medium and dissociated by gentle trituration using a reduced bore diameter Pasteur pipet. The cells were plated on a polylysine-coated (0.5 rg/ml, Sigma) 96-well microtiter plates at 30,000 cells/well.
The neuronal survival assay utilized the compound MTT [3-(4,5-dimethylthiazol-2-yl)-2,5-diphenyl tetrazolium bromide], a pale yellow substrate that is cleaved by the mitochondrial enzyme succinate-dehydrogenase to yield a dark blue formazan product. This process requires active mitochondria, present only in live cells. Cultures of hippocampal neurons grown in 96-well plates were incubated with 1 mg/ml MTT at 36° C. in a 10% CO2 -in-air incubator for 30-60 minutes. At the end of the incubation, a dark blue precipitate outlined only viable cells. The precipitate was then solubilized using 0.08N HCl/isopropanol mixture and the absorbance measured with an ELISA plate reader (Dynatech MR600) using a test wavelength of 570 nm and a reference wavelength of 630 nm. The resulting optical density is directly proportional to the number of viable cells.

NMDA receptor = test: NMDA-specific L-[3H]glutamate receptor binding assay, synaptic plasma membranes; settings: L-[3H]glutamate 12.5 nM, Triton X-100 treated SPM, 0-4° C., 10 min
Experimental: as §1
Prior to use in the NMDA-specific L-[^3 H]glutamate binding assay the SPM were thawed, diluted twenty fold with 50 mM Tris/acetate, pH 7.4 containing 0.04% (v/v) Triton X-100, incubated for 30 minutes at 37° C. and centrifuged as described above. The Triton X-100 treated membranes were washed with 50 mM Tris/acetate, pH 7.4 and centrifuged at 100,000 g for 15 minutes a total of four times.
as §2, §3, §4

## NC(C(=O)O)c1ccc(CP(=O)(O)O)cc1 (centres unmarked) [Example VI, 4-(Phosphonomethyl)phenylglycine]
CD-1 mouse; po, i.g., 3-MPA 50 mg/kg i.p., read-out: 3-MPA Convulsions i.g. (ED50)
  ED50: 300 mg/kg
CD-1 mouse; sc, s.c. 30-40 minutes prior to 3-MPA 50 mg/kg i.p., read-out: 3-MPA Convulsions s.c. (ED50)
  ED50: 6 mg/kg
[1]
  Ki: > 300 µM
Hippocampal neurons
  protection of neurons from glutamate toxicity: Significant protection
NMDA receptor
  Ki: 3.9 µM
